Measurements as given in article PMC5816172 (Proceedings of the National Academy of Sciences of the …, 2018).

Tested on: NLRP3 inflammasome
Experiment: NLRP3 inflammasome stimulation of J774A.1 macrophages
Assay type: cell-based, mouse
Details: J774A.1 (Fig. S7B), ACHP alone

N#Cc1c(C2CCNCC2)cc(-c2c(O)cccc2OCC2CC2)nc1N [ACHP, 2-Amino-6-[2-(cyclopropylmethoxy)-6-hydroxyphenyl]-4-(4-piperidinyl)-3-pyridinecarbonitrile, reference compound]
reduction of LPS/nigericin induction of IL-1β: 60%
